Measurements taken from ChEMBL document CHEMBL2429821, “A Casein kinase 1/Checkpoint kinase 1 pyrazolo-pyridine protein kinase inhibitor as novel activator of the p53 pathway” (Bioorg Med Chem Lett, 2013).

Key:
[1] = target: Maternal embryonic leucine zipper kinase (Homo sapiens) (UniProt Q14680); assay: Inhibition of human MELK assessed as residual activity at 1 uM relative to control
[2] = target: SRSF protein kinase 1 (Homo sapiens) (UniProt Q96SB4); assay: Inhibition of human SRPK1 assessed as residual activity at 10 uM relative to control
[3] = target: Aurora kinase B (Homo sapiens) (UniProt Q96GD4); assay: Inhibition of human Aurora-B assessed as residual activity at 10 uM relative to control
[4] = target: Casein kinase II (Homo sapiens) (UniProt P67870+P68400+P19784); assay: Inhibition of human CK2 assessed as residual activity at 1 uM relative to control; format: protein-complex assay
[5] = target: Serine/threonine-protein kinase PAK 4 (Homo sapiens) (UniProt O96013); assay: Inhibition of human PAK4 assessed as residual activity at 1 uM relative to control
Chain of Serine/threonine-protein kinase PAK 4 (Homo sapiens) (O96013 whole entry, looked up): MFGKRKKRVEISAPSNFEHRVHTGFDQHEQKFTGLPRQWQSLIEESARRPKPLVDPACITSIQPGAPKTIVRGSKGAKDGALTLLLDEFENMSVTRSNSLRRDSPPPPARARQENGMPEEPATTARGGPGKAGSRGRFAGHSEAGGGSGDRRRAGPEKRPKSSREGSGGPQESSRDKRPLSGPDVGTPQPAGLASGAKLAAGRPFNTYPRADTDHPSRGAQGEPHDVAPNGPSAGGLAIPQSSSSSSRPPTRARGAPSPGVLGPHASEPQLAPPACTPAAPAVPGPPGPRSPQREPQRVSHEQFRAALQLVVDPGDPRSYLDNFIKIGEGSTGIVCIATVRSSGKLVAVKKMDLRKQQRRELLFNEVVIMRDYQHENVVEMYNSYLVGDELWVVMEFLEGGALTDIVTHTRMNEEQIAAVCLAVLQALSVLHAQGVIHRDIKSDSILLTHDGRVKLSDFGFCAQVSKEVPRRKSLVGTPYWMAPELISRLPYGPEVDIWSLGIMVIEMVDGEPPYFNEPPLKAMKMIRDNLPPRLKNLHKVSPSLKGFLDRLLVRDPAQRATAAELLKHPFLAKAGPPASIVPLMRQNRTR

[6] = target: Tyrosine-protein kinase BTK (Homo sapiens) (UniProt Q06187); assay: Inhibition of human BTK assessed as residual activity at 10 uM relative to control
[7] = target: 3-phosphoinositide-dependent protein kinase 1 (Homo sapiens) (UniProt O15530); assay: Inhibition of human PDK1 assessed as residual activity at 1 uM relative to control
Chain of 3-phosphoinositide-dependent protein kinase 1 (Homo sapiens) (O15530 whole entry, looked up): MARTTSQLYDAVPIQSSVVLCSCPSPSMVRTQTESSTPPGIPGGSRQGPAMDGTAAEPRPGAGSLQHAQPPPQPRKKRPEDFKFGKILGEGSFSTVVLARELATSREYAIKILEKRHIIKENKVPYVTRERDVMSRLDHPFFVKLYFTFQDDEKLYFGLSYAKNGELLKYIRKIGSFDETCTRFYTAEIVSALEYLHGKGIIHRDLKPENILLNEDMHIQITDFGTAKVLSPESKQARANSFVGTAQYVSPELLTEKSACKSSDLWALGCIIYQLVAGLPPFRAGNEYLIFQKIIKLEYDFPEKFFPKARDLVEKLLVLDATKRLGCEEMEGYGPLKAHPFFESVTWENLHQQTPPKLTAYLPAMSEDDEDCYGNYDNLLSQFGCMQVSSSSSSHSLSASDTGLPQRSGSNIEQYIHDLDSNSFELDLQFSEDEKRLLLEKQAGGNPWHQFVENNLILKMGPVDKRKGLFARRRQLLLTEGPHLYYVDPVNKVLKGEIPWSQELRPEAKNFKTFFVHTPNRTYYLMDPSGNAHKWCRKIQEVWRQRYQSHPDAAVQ

[8] = target: Ribosomal protein S6 kinase beta-1 (Homo sapiens) (UniProt P23443); assay: Inhibition of human S6K1 assessed as residual activity at 1 uM relative to control
[9] = target: RAC-beta serine/threonine-protein kinase (Homo sapiens) (UniProt P31751); assay: Inhibition of human PKBbeta assessed as residual activity at 10 uM relative to control
[10] = target: Fibroblast growth factor receptor 1 (Homo sapiens, UniProt P11362); assay: Inhibition of human FGFR1 assessed as residual activity at 1 uM relative to control
[11] = target: T1, Inhibitor of nuclear factor kappa-B kinase subunit beta (Homo sapiens) (UniProt O14920); assay: Inhibition of human IKKbeta assessed as residual activity at 1 uM relative to control
T1 sequence (whole entry): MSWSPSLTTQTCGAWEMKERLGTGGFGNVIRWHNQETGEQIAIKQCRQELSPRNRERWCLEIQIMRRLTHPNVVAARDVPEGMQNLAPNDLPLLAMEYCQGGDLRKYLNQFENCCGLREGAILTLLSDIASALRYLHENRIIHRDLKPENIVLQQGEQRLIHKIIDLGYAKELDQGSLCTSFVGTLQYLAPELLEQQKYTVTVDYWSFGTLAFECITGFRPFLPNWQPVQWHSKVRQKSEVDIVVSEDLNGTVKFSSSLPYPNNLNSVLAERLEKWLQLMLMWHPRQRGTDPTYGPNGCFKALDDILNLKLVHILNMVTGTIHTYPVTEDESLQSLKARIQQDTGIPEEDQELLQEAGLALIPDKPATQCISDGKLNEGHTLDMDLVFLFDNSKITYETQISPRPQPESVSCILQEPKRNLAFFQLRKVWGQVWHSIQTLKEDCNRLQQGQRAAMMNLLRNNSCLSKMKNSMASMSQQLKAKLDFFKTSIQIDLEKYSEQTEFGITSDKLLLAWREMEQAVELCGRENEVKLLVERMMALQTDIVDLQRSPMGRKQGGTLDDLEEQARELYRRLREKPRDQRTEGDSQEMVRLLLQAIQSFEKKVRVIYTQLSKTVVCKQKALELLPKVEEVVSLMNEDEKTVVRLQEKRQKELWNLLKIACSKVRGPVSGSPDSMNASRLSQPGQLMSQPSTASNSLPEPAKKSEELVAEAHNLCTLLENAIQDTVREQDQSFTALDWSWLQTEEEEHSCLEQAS

[12] = target: RAC-alpha serine/threonine-protein kinase (Homo sapiens) (UniProt P31749); assay: Inhibition of human PKBalpha assessed as residual activity at 10 uM relative to control
[13] = target: T2, Serine/threonine-protein kinase Sgk1 (Homo sapiens) (UniProt O00141); assay: Inhibition of human SGK1 assessed as residual activity at 1 uM relative to control
T2 sequence (whole entry): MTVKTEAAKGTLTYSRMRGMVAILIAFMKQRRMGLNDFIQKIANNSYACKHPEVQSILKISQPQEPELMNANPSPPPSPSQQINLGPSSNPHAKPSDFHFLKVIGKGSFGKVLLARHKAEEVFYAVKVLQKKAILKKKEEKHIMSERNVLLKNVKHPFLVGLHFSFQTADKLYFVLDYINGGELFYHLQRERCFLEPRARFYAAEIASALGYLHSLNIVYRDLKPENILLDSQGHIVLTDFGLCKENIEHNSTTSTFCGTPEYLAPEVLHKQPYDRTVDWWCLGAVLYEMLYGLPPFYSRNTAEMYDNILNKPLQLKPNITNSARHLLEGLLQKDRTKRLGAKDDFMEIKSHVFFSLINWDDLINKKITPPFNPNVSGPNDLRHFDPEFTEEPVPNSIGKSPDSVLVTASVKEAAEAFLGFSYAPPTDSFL

Bos taurus = species: Bos taurus; assay: Inhibition of cow PKA assessed as residual activity at 10 uM relative to control
[14] = target: Tyrosine-protein kinase BTK (Homo sapiens) (UniProt Q06187); assay: Inhibition of human BTK assessed as residual activity at 1 uM relative to control
[15] = target: Serine/threonine-protein kinase Nek6 (Homo sapiens) (UniProt Q9HC98); assay: Inhibition of human NEK6 assessed as residual activity at 1 uM relative to control
[16] = target: Homeodomain-interacting protein kinase 2 (Homo sapiens) (UniProt Q9H2X6); assay: Inhibition of human HIPK2 assessed as residual activity at 10 uM relative to control
[17] = target: Serine/threonine-protein kinase N2 (Homo sapiens) (UniProt Q16513); assay: Inhibition of human PRK2 assessed as residual activity at 1 uM relative to control
Chain of Serine/threonine-protein kinase N2 (Homo sapiens) (Q16513 whole entry, looked up): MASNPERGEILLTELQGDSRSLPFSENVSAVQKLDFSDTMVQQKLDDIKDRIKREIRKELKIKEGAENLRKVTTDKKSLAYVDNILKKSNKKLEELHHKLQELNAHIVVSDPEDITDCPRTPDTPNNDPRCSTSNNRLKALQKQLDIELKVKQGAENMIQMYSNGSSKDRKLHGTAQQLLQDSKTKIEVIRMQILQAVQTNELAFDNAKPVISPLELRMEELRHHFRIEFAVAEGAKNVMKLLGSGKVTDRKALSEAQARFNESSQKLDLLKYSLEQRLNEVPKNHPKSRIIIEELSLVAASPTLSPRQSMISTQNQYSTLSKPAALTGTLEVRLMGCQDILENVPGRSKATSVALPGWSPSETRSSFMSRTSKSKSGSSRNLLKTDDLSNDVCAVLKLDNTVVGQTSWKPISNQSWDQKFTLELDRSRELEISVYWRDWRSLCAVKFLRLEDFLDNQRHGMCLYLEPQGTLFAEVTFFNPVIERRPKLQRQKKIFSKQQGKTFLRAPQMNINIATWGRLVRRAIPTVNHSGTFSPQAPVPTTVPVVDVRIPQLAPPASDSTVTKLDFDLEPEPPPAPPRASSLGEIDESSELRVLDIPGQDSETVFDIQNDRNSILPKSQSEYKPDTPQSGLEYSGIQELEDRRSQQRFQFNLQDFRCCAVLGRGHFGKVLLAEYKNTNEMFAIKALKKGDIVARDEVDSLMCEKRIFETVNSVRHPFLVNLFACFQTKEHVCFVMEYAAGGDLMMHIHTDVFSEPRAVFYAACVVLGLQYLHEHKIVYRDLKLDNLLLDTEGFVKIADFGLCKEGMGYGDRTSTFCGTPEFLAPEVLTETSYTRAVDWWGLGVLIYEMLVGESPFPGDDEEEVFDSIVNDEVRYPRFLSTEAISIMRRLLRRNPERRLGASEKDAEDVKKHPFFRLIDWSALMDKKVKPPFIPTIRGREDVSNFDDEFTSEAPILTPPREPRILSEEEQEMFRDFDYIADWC

[18] = target: 3-phosphoinositide-dependent protein kinase 1 (Homo sapiens) (UniProt O15530); assay: Inhibition of human PDK1 assessed as residual activity at 10 uM relative to control
[19] = target: Ribosomal protein S6 kinase alpha-5 (Homo sapiens) (UniProt O75582); assay: Inhibition of human MSK1 assessed as residual activity at 1 uM relative to control
Chain of Ribosomal protein S6 kinase alpha-5 (Homo sapiens) (O75582 whole entry, looked up): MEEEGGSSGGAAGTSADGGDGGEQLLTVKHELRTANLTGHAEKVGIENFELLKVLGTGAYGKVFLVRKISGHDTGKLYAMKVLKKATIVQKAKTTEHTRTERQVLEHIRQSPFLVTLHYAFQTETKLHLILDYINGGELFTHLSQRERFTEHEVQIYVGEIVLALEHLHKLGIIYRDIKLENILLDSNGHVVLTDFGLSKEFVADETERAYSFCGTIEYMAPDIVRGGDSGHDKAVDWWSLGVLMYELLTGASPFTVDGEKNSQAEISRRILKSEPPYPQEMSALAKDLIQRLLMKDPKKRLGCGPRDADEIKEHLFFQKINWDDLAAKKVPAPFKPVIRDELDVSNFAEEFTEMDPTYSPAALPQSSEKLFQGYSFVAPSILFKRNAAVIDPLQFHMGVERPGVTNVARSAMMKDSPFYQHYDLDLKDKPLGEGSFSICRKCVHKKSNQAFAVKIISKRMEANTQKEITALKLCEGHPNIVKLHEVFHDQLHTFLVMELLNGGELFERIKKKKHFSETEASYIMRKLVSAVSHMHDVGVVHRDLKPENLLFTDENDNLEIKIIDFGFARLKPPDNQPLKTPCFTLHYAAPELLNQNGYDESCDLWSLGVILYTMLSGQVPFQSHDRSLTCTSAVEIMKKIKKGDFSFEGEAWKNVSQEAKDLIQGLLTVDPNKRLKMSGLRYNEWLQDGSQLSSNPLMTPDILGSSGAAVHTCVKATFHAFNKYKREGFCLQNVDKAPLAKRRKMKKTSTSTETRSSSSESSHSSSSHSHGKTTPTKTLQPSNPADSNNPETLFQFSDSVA

[20] = target: Serine/threonine-protein kinase PAK 4 (Homo sapiens) (UniProt O96013); assay: Inhibition of human PAK4 assessed as residual activity at 10 uM relative to control
[21] = target: Homeodomain-interacting protein kinase 2 (Homo sapiens) (UniProt Q9H2X6); assay: Inhibition of human HIPK2 assessed as residual activity at 1 uM relative to control
[22] = target: Rho-associated protein kinase 2 (Rattus norvegicus) (UniProt Q62868); assay: Inhibition of rat ROCK2 assessed as residual activity at 1 uM relative to control
Chain of Rho-associated protein kinase 2 (Rattus norvegicus) (Q62868 whole entry, looked up): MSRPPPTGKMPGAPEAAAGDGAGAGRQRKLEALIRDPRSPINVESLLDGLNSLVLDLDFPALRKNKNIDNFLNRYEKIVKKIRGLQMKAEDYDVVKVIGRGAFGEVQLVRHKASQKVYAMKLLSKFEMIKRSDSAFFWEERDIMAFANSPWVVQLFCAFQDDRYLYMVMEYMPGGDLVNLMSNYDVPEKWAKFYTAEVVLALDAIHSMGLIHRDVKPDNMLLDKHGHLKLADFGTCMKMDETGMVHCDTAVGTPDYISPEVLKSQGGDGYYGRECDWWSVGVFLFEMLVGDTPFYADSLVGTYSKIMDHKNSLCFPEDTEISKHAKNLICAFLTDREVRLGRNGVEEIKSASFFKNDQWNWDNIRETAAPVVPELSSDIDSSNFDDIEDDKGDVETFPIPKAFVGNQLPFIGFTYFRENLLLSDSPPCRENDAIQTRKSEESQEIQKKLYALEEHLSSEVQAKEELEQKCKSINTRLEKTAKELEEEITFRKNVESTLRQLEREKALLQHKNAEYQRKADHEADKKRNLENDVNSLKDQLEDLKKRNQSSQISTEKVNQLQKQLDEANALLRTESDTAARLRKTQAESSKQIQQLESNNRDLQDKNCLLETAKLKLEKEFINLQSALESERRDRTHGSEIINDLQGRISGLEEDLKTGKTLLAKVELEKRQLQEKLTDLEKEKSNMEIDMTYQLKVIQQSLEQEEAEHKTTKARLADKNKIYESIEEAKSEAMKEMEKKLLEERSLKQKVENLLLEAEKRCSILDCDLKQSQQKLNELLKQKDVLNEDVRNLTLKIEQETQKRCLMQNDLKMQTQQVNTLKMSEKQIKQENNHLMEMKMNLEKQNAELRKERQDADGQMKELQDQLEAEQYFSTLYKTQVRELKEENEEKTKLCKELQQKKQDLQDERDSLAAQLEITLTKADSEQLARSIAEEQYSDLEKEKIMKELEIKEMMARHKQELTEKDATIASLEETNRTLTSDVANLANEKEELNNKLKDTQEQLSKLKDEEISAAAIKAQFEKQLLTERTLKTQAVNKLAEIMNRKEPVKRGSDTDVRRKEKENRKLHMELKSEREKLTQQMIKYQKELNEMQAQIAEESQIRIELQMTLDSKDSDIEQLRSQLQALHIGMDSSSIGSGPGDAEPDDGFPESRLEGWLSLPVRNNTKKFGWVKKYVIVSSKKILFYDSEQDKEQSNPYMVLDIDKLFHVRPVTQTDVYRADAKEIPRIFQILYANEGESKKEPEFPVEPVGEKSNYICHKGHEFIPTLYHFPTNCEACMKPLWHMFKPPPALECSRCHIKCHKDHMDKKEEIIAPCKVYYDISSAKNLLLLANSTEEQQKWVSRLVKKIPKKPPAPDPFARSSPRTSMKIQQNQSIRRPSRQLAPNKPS

[23] = target: Insulin-like growth factor 1 receptor (Homo sapiens) (UniProt P08069); assay: Inhibition of human IGF-1R assessed as residual activity at 1 uM relative to control
[24] = target: Tyrosine-protein kinase CSK (Homo sapiens) (UniProt P41240); assay: Inhibition of human CSK assessed as residual activity at 1 uM relative to control
[25] = target: Protein kinase C alpha type (Homo sapiens) (UniProt P17252); assay: Inhibition of human PKCalpha assessed as residual activity at 10 uM relative to control

| Activity [1] [%] | Activity [2] [%] | Activity [3] [%] | Activity [4] [%] | Activity [5] [%] | Activity [6] [%] | Activity [7] [%] | Activity [8] [%] | Activity [9] [%] | Activity [10] [%] | Activity [11] [%] | Activity [12] [%] | Activity [13] [%] | Activity (Bos taurus) [%] | Activity [14] [%] | Activity [15] [%] | Activity [16] [%] | Activity [17] [%] | Activity [18] [%] | Activity [19] [%] | Compound | further results |
| --- | --- | --- | --- | --- | --- | --- | --- | --- | --- | --- | --- | --- | --- | --- | --- | --- | --- | --- | --- | --- | --- |
| 103 | 91.3 | 93 | 79.3 | 115 | 99.7 | 91.4 | 108 | 84 | 99.8 | 44.4 | 115 | 57.5 | 92.8 | 103 | 64.9 | 94.2 | 77.6 | 66 | 82.7 | CC(=O)Nc1nccc(-c2c(-c3ccccc3)noc2C)n1 | Activity [20]: 106%; Activity [21]: 98.9%; Activity [22]: 95%; Activity [23]: 82.7%; Activity [24]: 93.4%; Activity [25]: 99.9% |
| 115 | 91 | 71 | 82 | 89 | 69 | 108 | 85 | 91 | 92 | 70 | 91 | 108 | 94 | 85 | 86 | 31 | 81 | 98 | 70 | CCCC(=O)Nc1n[nH]c2ncc(-c3cccnc3)cc12 | Activity [20]: 79%; Activity [21]: 72%; Activity [22]: 121%; Activity [23]: 88%; Activity [24]: 91%; Activity [25]: 81% |
| 76.1 | 89 | 85.1 | 102 | 71.2 | 16.5 | 95.8 | 90.6 | 94 | 107 | 97 | 51.1 | 105 | 83.3 | 93.2 | 77.3 | 42.4 | 99.9 | 70.4 | 95.3 | CC(=O)Nc1cccc(-c2cnc3[nH]nc(C)c3c2)c1 | Activity [20]: 51.9%; Activity [21]: 72%; Activity [22]: 93.9%; Activity [23]: 70.8%; Activity [24]: 95.3%; Activity [25]: 104% |
